Patent US20230157939A1, “PERSONAL CARE COMPOSITIONS WITH ENHANCED SOLUBILITY ACTIVES” (Conopco, Inc., d/b/a UNILEVER, priority 2020, published 2023)

Columns and labels:
[1] = Odor and H2S generation (H2S test strip) of cystine / cystine derivative samples; type: physicochemical; details: summary of the Examples; monitored as H2S
Procedure: Evaluation of Cystine Crystallization and Odor in the Presence of Cystine Derivatives Samples for cystine crystallization evaluation were prepared by dissolving cystine (10 mg) alone or in combination with NDAC (N,N′-diacetyl-L-cystine) (55 mg), NACys (N-acetyl-L-cysteine) (28 mg) or L-cystine diethyl ester dihydrochloride (DEC) (62 mg) in 0.775M NaOH (1 ml) or Epilife™ cell culture media (60 uM calcium chloride, HEPES/bicarbonate buffered; Thermofisher Scientific) (1 ml) and the pH adjusted to 7.0 by adding HCl (12.1M). A hydrogen sulfide (H2S) test strip (Sigma) was placed above the sample solution and the samples sealed. Visual appearance, odor and H2S generation (unchanged test strip white color=no H2S generated; changed test strip brown/black color=H2S generated) were monitored up to 4 months and recorded.

[2] = according to Zhu, et al.; cited from earlier work
[3] = at 25° C.; cited from earlier work

Row | odor of the cystine derivative, in words [1] | SMILES | also measured
1 | unpleasant sulfurous odor | CCOC(=O)[C@@H](N)CSSC[C@H](N)C(=O)OCC [DEC, L-Cystine diethyl ester] | 
2 | upleasant sulfurous odor | CC(=O)N[C@@H](CS)C(=O)O [NACys, N-Acetyl-L-Cysteine] | 
3 |  | CC(=O)N[C@@H](CSSC[C@H](NC(C)=O)C(=O)O)C(=O)O [NDAC, N,N′-Diacetyl-L-Cystine] | inhibitor of cystine crystal growth [2]: not effective
4 |  | N[C@@H](CSSC[C@H](N)C(=O)O)C(=O)O [cystine, L-Cystine] | solubility of cystine in water [3]: 112 µg/mL
